Patent publication US11628153B2, “Agent for preventing or amelioriting nocturia” (Kao Corporation, priority 2018, dated 2023)

Tested on: Spontaneously Hypertensive Rats (SHRs)
Test: Urination behavior recording in metabolic cages after 8 weeks of oral intake of rosmarinic acid-containing feed (urinary frequency, urine volume)
Assay type: in vivo, rat
Settings: for Mean urinary frequency of rats during rest period / Mean urine volume of rats during rest period / Mean urinary frequency of rats during activity period / Mean urine volume of rats during activity period: 0.5 mass % rosmarinic acid feed, 8 weeks, mean ± standard error, n=12; for Significant difference in mean urinary frequency, treatment vs control group / Significant difference in mean urine volume, treatment vs control group: Student-t test
Text: For the test, Spontaneously Hypertensive Rats (SHRs, see American Journal of Physiology, 1998, vol. 275, p. R1279-1286 and Neurourology and Urodynamics, 2005, vol. 24, p. 295-300) (42-week-old, female, obtained from Japan SLC) were used. SHRs in the treatment group (n=12) ingested, for 8 weeks, a rosmarinic acid-containing feed (composition: 0.5 mass % rosmarinic acid (obtained from Carbosynth, Inc.), 66 mass % starch, 20 mass % casein, 5 mass % corn oil, 4 mass % cellulose, 3.5 mass % mineral, and 1 mass % vitamin). SHRs in the control group (n=12) ingested, for 8 weeks, a rosmarinic acid-free feed (composition: 66.5 mass % starch, 20 mass % casein, 5 mass % corn oil, 4 mass % cellulose, 3.5 mass % mineral, and 1 mass % vitamin). Then, their urination behavior was recorded in metabolic cages. Note that, before the recording in the metabolic cages, 4-day adaptation period was provided, and they were reared individually. The urination behavior recording (measurement of the urinary frequency and the urine volume) was carried out under conditions with free access to feed and water and under conditions with a 12/12-h light/dark cycle. The urine volume was weighed with an electronic balance while the urine was collected every urination. Note that a past report (see Neurourology and Urodynamics, 2017, vol. 36, p. 1034-1038) was consulted; the start time of a light period corresponding to a rest period of each rat was set to ZT0; the light period was divided into two periods of ZT0-6 and ZT6-12; and the urinary frequency during each period was defined as an indicator for nocturia. In addition, a dark period corresponding to an activity period was divided into two periods of ZT12-18 and ZT18-24; and the urinary frequency during each period was defined as an indicator for daytime frequent urination. […] The results were means±standard errors. To compare the inter-group means, Student-t test was used.

SMILES: O=C(/C=C/c1ccc(O)c(O)c1)O[C@H](Cc1ccc(O)c(O)c1)C(=O)O [rosmarinic acid]
- Mean urinary frequency of rats during rest period (ZT0-6 (rest period)): 2.5 ± 0.2 times/6 h
- Mean urine volume of rats during rest period (ZT0-6 (rest period)): 1.7 ± 0.1 mL/6 h
- Significant difference in mean urinary frequency, treatment vs control group (ZT0-6 (rest period)): N.S.
- Significant difference in mean urine volume, treatment vs control group (ZT0-6 (rest period)): N.S.
- Mean urinary frequency of rats during rest period (ZT6-12 (rest period)): 2.4 ± 0.2 times/6 h
- Mean urine volume of rats during rest period (ZT6-12 (rest period)): 1.1 ± 0.1 mL/6 h
- Significant difference in mean urine volume, treatment vs control group (ZT6-12 (rest period)): N.S.
- Mean urinary frequency of rats during activity period (ZT12-18 (activity period)): 6.7 ± 1.1 times/6 h
- Mean urine volume of rats during activity period (ZT12-18 (activity period)): 2.4 ± 0.4 mL/6 h
- Significant difference in mean urinary frequency, treatment vs control group (ZT12-18 (activity period)): N.S.
- Significant difference in mean urine volume, treatment vs control group (ZT12-18 (activity period)): N.S.
- Mean urinary frequency of rats during activity period (ZT18-24 (activity period)): 6.0 ± 0.7 times/6 h
- Mean urine volume of rats during activity period (ZT18-24 (activity period)): 2.4 ± 0.2 mL/6 h
- Significant difference in mean urinary frequency, treatment vs control group (ZT18-24 (activity period)): N.S.
- Significant difference in mean urine volume, treatment vs control group (ZT18-24 (activity period)): N.S.
- Significant difference in the mean urine volume during each time zone, treatment vs control group (all time zones (ZT0-24)): undetected
